Assay results reported in ChEMBL document CHEMBL4665642, “Anticancer profile of newly synthesized BRAF inhibitors possess 5-(pyrimidin-4-yl)imidazo[2,1-b]thiazole scaffold” (Bioorg Med Chem, 2019).

Assays:
Format in all cases: functional
Conditions in all cases: read-out: Activity
KM12 = test: Cytotoxicity against human KM12 cells assessed as cell viability at 10 uM incubated for 48 hrs by sulforhodamine B assay relative to control
U-251 = test: Cytotoxicity against human U-251 cells assessed as cell viability at 10 uM incubated for 48 hrs by sulforhodamine B assay relative to control
UACC-257 = test: Cytotoxicity against human UACC-257 cells assessed as cell viability at 10 uM incubated for 48 hrs by sulforhodamine B assay relative to control
SR = test: Cytotoxicity against human SR cells assessed as cell viability at 10 uM incubated for 48 hrs by sulforhodamine B assay relative to control
NCI-H460 = test: Cytotoxicity against human NCI-H460 cells assessed as cell viability at 10 uM incubated for 48 hrs by sulforhodamine B assay relative to control
MDA-MB-231 = test: Cytotoxicity against human MDA-MB-231 cells assessed as cell viability at 10 uM incubated for 48 hrs by sulforhodamine B assay relative to control
CAKI-1 = test: Cytotoxicity against human CAKI-1 cells assessed as cell viability at 10 uM incubated for 48 hrs by sulforhodamine B assay relative to control
TK-10 = test: Cytotoxicity against human TK-10 cells assessed as cell viability at 10 uM incubated for 48 hrs by sulforhodamine B assay relative to control
SN12C = test: Cytotoxicity against human SN12C cells assessed as cell viability at 10 uM incubated for 48 hrs by sulforhodamine B assay relative to control
DU-145 = test: Cytotoxicity against human DU-145 cells assessed as cell viability at 10 uM incubated for 48 hrs by sulforhodamine B assay relative to control
SK-OV-3 = test: Cytotoxicity against human SK-OV-3 cells assessed as cell viability at 10 uM incubated for 48 hrs by sulforhodamine B assay relative to control
SNB-75 = test: Cytotoxicity against human SNB-75 cells assessed as cell viability at 10 uM incubated for 48 hrs by sulforhodamine B assay relative to control
MDA-MB-468 = test: Cytotoxicity against human MDA-MB-468 cells assessed as cell viability at 10 uM incubated for 48 hrs by sulforhodamine B assay relative to control
COLO 205 = test: Cytotoxicity against human COLO 205 cells assessed as cell viability at 10 uM incubated for 48 hrs by sulforhodamine B assay relative to control
HCT-116 = test: Cytotoxicity against human HCT-116 cells assessed as cell viability at 10 uM incubated for 48 hrs by sulforhodamine B assay relative to control
SW-620 = test: Cytotoxicity against human SW-620 cells assessed as cell viability at 10 uM incubated for 48 hrs by sulforhodamine B assay relative to control
RXF 393 = test: Cytotoxicity against human RXF 393 cells assessed as cell viability at 10 uM incubated for 48 hrs by sulforhodamine B assay relative to control
NCI-H322M = test: Cytotoxicity against human NCI-H322M cells assessed as cell viability at 10 uM incubated for 48 hrs by sulforhodamine B assay relative to control
BT-549 = test: Cytotoxicity against human BT-549 cells assessed as cell viability at 10 uM incubated for 48 hrs by sulforhodamine B assay relative to control
CCRF-CEM = test: Cytotoxicity against human CCRF-CEM cells assessed as cell viability at 10 uM incubated for 48 hrs by sulforhodamine B assay relative to control
SF-268 = test: Cytotoxicity against human SF-268 cells assessed as cell viability at 10 uM incubated for 48 hrs by sulforhodamine B assay relative to control
HCT-15 = test: Cytotoxicity against human HCT-15 cells assessed as cell viability at 10 uM incubated for 48 hrs by sulforhodamine B assay relative to control
SF-295 = test: Cytotoxicity against human SF-295 cells assessed as cell viability at 10 uM incubated for 48 hrs by sulforhodamine B assay relative to control
UACC-62 = test: Cytotoxicity against human UACC-62 cells assessed as cell viability at 10 uM incubated for 48 hrs by sulforhodamine B assay relative to control
OVCAR-8 = test: Cytotoxicity against human OVCAR-8 cells assessed as cell viability at 10 uM incubated for 48 hrs by sulforhodamine B assay relative to control
NCI-H23 = test: Cytotoxicity against human NCI-H23 cells assessed as cell viability at 10 uM incubated for 48 hrs by sulforhodamine B assay relative to control
M14 = test: Cytotoxicity against human M14 cells assessed as cell viability at 10 uM incubated for 48 hrs by sulforhodamine B assay relative to control
HOP-92 = test: Cytotoxicity against human HOP-92 cells assessed as cell viability at 10 uM incubated for 48 hrs by sulforhodamine B assay relative to control
Malme-3M = test: Cytotoxicity against human Malme-3M cells assessed as cell viability at 10 uM incubated for 48 hrs by sulforhodamine B assay relative to control
ACHN = test: Cytotoxicity against human ACHN cells assessed as cell viability at 10 uM incubated for 48 hrs by sulforhodamine B assay relative to control
HCT-29 = test: Cytotoxicity against human […] cells assessed as cell viability at 10 uM incubated for 48 hrs by sulforhodamine B assay relative to control
NCI-H522 = test: Cytotoxicity against human NCI-H522 cells assessed as cell viability at 10 uM incubated for 48 hrs by sulforhodamine B assay relative to control
OVCAR-3 = test: Cytotoxicity against human OVCAR-3 cells assessed as cell viability at 10 uM incubated for 48 hrs by sulforhodamine B assay relative to control
SK-MEL-28 = test: Cytotoxicity against human SK-MEL-28 cells assessed as cell viability at 10 uM incubated for 48 hrs by sulforhodamine B assay relative to control
LOX IMVI = test: Cytotoxicity against human LOX IMVI cells assessed as cell viability at 10 uM incubated for 48 hrs by sulforhodamine B assay relative to control
NCI/ADR-RES = test: Cytotoxicity against human NCI/ADR-RES cells assessed as cell viability at 10 uM incubated for 48 hrs by sulforhodamine B assay relative to control
Hs-578T = test: Cytotoxicity against human HS-578T cells assessed as cell viability at 10 uM incubated for 48 hrs by sulforhodamine B assay relative to control
NCI-H226 = test: Cytotoxicity against human NCI-H226 cells assessed as cell viability at 10 uM incubated for 48 hrs by sulforhodamine B assay relative to control
786-0 = test: Cytotoxicity against human 786-0 cells assessed as cell viability at 10 uM incubated for 48 hrs by sulforhodamine B assay relative to control
MDA-MB-435 = test: Cytotoxicity against human MDA-MB-435 cells assessed as cell viability at 10 uM incubated for 48 hrs by sulforhodamine B assay relative to control

| SMILES | viability at 10 µM (KM12) [%] | viability at 10 µM (U-251) [%] | viability at 10 µM (UACC-257) [%] | viability at 10 µM (SR) [%] | viability at 10 µM (NCI-H460) [%] | viability at 10 µM (MDA-MB-231) [%] | viability at 10 µM (CAKI-1) [%] | viability at 10 µM (TK-10) [%] | viability at 10 µM (SN12C) [%] | viability at 10 µM (DU-145) [%] | viability at 10 µM (SK-OV-3) [%] | viability at 10 µM (SNB-75) [%] | viability at 10 µM (MDA-MB-468) [%] | viability at 10 µM (COLO 205) [%] | viability at 10 µM (HCT-116) [%] | viability at 10 µM (SW-620) [%] | viability at 10 µM (RXF 393) [%] | viability at 10 µM (NCI-H322M) [%] | viability at 10 µM (BT-549) [%] | viability at 10 µM (CCRF-CEM) [%] | also measured |
| --- | --- | --- | --- | --- | --- | --- | --- | --- | --- | --- | --- | --- | --- | --- | --- | --- | --- | --- | --- | --- | --- |
| O=S(=O)(NCCCNc1nccc(-c2c(-c3cccc(F)c3)nc3sccn23)n1)c1ccccc1 | 62.1 | 82.3 | 86.7 | 82.2 | 65.3 | 70.8 | 56.4 | 92.8 | 58.2 | 72.7 | 71.5 | 102 | 62.7 | 29 | 56.7 | 91.3 | 84 | 89.3 | 71.1 | 44.1 | viability at 10 µM (SF-268): 71.5%; viability at 10 µM (HCT-15): 37.8%; viability at 10 µM (SF-295): 79.9%; viability at 10 µM (UACC-62): 26.8%; viability at 10 µM (OVCAR-8): 43%; viability at 10 µM (NCI-H23): 76.9%; viability at 10 µM (M14): 50.5%; viability at 10 µM (HOP-92): 80.2%; viability at 10 µM (Malme-3M): 82.1%; viability at 10 µM (ACHN): 54.1%; viability at 10 µM (HCT-29): 32.9%; viability at 10 µM (NCI-H522): 47%; viability at 10 µM (OVCAR-3): 74.9%; viability at 10 µM (SK-MEL-28): 83.4%; viability at 10 µM (LOX IMVI): 50.3%; viability at 10 µM (NCI/ADR-RES): 53.4%; viability at 10 µM (Hs-578T): 89.9%; viability at 10 µM (NCI-H226): 43.2%; viability at 10 µM (786-0): 74%; viability at 10 µM (MDA-MB-435): 41.7% |
| O=S(=O)(NCCCNc1nccc(-c2c(-c3cccc(F)c3)nc3sccn23)n1)c1ccc(Br)cc1 | 46.7 | 76.7 | 62.4 | 78.1 | 60.5 | 76.4 | 50.3 | 74.8 | 53.9 | 61.9 | 80.1 | 88.6 | 32.3 | 33.5 | 46.2 | 77.6 | 81.8 | 81 | 64 | 36.8 | viability at 10 µM (SF-268): 60.6%; viability at 10 µM (HCT-15): 26.4%; viability at 10 µM (SF-295): 64.2%; viability at 10 µM (UACC-62): 18.3%; viability at 10 µM (OVCAR-8): 28%; viability at 10 µM (NCI-H23): 57.4%; viability at 10 µM (M14): 48.1%; viability at 10 µM (HOP-92): 73.7%; viability at 10 µM (Malme-3M): 69.4%; viability at 10 µM (ACHN): 50.3%; viability at 10 µM (HCT-29): 23.8%; viability at 10 µM (NCI-H522): 37.9%; viability at 10 µM (OVCAR-3): 57.8%; viability at 10 µM (SK-MEL-28): 67%; viability at 10 µM (LOX IMVI): 40.2%; viability at 10 µM (NCI/ADR-RES): 34.4%; viability at 10 µM (Hs-578T): 71.7%; viability at 10 µM (NCI-H226): 32.7%; viability at 10 µM (786-0): 73.5%; viability at 10 µM (MDA-MB-435): 31.6% |
| O=S(=O)(NCCCNc1nccc(-c2c(-c3cccc(F)c3)nc3sccn23)n1)c1ccc(Cl)cc1 | 72.7 | 90.2 | 103 | 92.9 | 75.4 | 77.9 | 63 | 99 | 65.9 | 78.2 | 78.1 | 102 | 63.6 | 41.3 | 64 | 104 | 99.6 | 93.2 | 85.4 | 46.6 | viability at 10 µM (SF-268): 76.3%; viability at 10 µM (HCT-15): 49.6%; viability at 10 µM (SF-295): 87.1%; viability at 10 µM (UACC-62): 40.4%; viability at 10 µM (OVCAR-8): 50.2%; viability at 10 µM (NCI-H23): 86%; viability at 10 µM (M14): 66.1%; viability at 10 µM (HOP-92): 85.7%; viability at 10 µM (Malme-3M): 107%; viability at 10 µM (ACHN): 60%; viability at 10 µM (HCT-29): 36.9%; viability at 10 µM (NCI-H522): 57.4%; viability at 10 µM (OVCAR-3): 79.8%; viability at 10 µM (SK-MEL-28): 92.3%; viability at 10 µM (LOX IMVI): 60.3%; viability at 10 µM (NCI/ADR-RES): 67.4%; viability at 10 µM (Hs-578T): 94.6%; viability at 10 µM (NCI-H226): 46.9%; viability at 10 µM (786-0): 83.6%; viability at 10 µM (MDA-MB-435): 53.1% |
